The subject of assay [1] is CHO cells. The experiment in a line: Membrane penetration (peptide internalization) assay of biotinylated synthetic peptides. It is filed as cell-based, Chinese Hamster. The following applies: for intracellular distribution / staining of internalized peptide: Streptavidin ALEXA or anti-Flag mAb staining; for cells penetrated by peptide: peptide 10 μM added to cells in culture. As for the experimental part:
FIG. 2. Membrane penetration assay in CHO cells. N-terminal biotinylated synthetic peptides hPER1-PTD, Flag-hPER1-PTD, Flag-TAT-PTD (positive control), and Flag-Flag (negative control) were assayed for their ability to penetrate cellular membranes in living CHO cells in culture. The subcellular localization of internalized peptides was determined using a two color staining method, either Streptavidin-Alexa 594 (red) or anti-flag mAb. The third column is an overlay. Confocal microscopy was employed to further confirm intracellular and intranuclear localization. Single section of confocal imaging is shown.
FIG. 3. Alanine scanning of hPER1-PDTs. Biotinylated hPER1-NPDs were synthesized with a single amino acid residue substitution at the indicated position with an alanine and assayed for membrane penetration in CHO cells. Cells were incubated for 10 minutes at 37 C. at a peptide concentration of 10 μM followed by washing, fixation, permeablization, and then detected with labeled Streptavidin Alexa-594 (red, 2 μg/ml) for 15 minutes at the RT. Control peptide was from hPER1 N-terminal amino acids residues 486-500.
Peptides are synthesized by a commercial vendor (Bio Synthesis). For peptides internalization, cells are plated into two-well Lab-Tek coverslips (Nunc Inc.) at a density of 2×10^5 cells/well and cultured overnight. The peptides are dissolved in DMSO diluted to indicated concentration with PBS. The cell monolayers were incubated with the appropriate peptide/PBS solution at 1 μM standard concentration for 10 min at room temperature (RT) unless otherwise specified. For experiments at 4° C., the protocol was the same except that all incubations were performed at 4° C. until the end of the fixation procedure.
The peptides are assayed for their ability to penetrate cellular membranes. Intracellular localization is assayed by direct staining with labeled Streptavidin ALEXA reagents or by indirect staining with anti-Flag mAb followed by the addition of labeled secondary antibodies.

Assay [2] deals with CHO cells. The experiment in a line: β-galactosidase cargo delivery into cells (X-gal staining). It counts as cell-based, Chinese Hamster. The following applies: chemically linked conjugates. The text has this: FIG. 6. hPER-PTD cargo's β-Galactosidase into cells: At least one feature of HIV TAT transducing peptide is its ability to cargo proteins into cells and tissues. We therefore sought to determine if hPER1 transducing peptide could cargo beta galactosidase into cells. To perform this experiment, we followed a protocol by Frankel et al. 1989 (19):7397-401, whereby, we chemically linked hPER1-PTD or hPER-PTD R7A to full length β-galactosidase and assayed for the ability of these conjugates and beta-galactosidase protein alone to transduce into CHO cells.
At least one feature of HIV TAT transducing peptide is its ability to cargo proteins into cells and tissues. We therefore sought to determine if hPER1 transducing peptide could cargo beta galactosidase into cells. To perform this experiment, we followed a protocol by Frankel et al. PNAS 1989 (19):7397-401, whereby, we chemically linked hPER1-PTD or hPER-PTD R7A (with Ala replacing Arg^7) to full length β-galactosidase and assayed for the ability of these conjugates and beta-galactosidase protein alone to transduce into CHO cells.

A further assay has as its target T1, 5HT2A receptor (Homo sapiens, UniProt P28223).
T1 construct: expressed in transfected cells
Description: 5HT2A receptor activation, FLIPR calcium response. It is filed as cell-based. The following applies: 10 μM, 5HT2A receptor CHO stable cell line. As for the experimental part:
FIG. 4. Activation of serotonin 5HT2A receptor with hPER1-MPP fusion peptide. (A). hPER1-MPP and TAT-PTD peptides were synthesized alone or in fusion with either the first intracellular loop I1 ([…] (SEQ ID NO:10)), or the C-terminal Transmembrane 7 domain. TM7 ([…] (SEQ ID NO:11) derived from the 5HT2A receptor, genebank accession number, M86841). Receptor activities was assayed using standard FLIPR analysis and measuring endogenous and exogenous Ca^+2 levels. Peptide designations are as follows: T (TAT-PTD), P (hPER1-MPP), I1 (intracellular loop 1), T-I1 (TAT-PTD-I1), P-I1 (hPER1-MPP-I1), TM7 (C-terminal domain), TTM7 (TAT-PTD-TM7), PTM7 (hPER1-MPP-TM7), and S (Serotonin).
FIG. 4 (B). Dose response of PTM7 (closed circles) and TTM7 (closed diamonds) peptides. Serotonin (control, open triangle) was used at the maximum receptor stimulatory concentration of 10 μM.
One of the features of MPPs is their ability to cargo proteins and peptides into cells. We were successful in coupling hPER1-MPP to B-galactosidase and in delivering the fusion protein into cells in culture (data not shown), as has been described by Fawells et al., 1994 (Fawell, S., et al., Proc Natl Acad Sci USA. 91, 664-668 (1994)). However, to further extend the functional utility of MPPs, we tested hPER1-MPP in fusion with a physiologically relevant and biologically active peptide. […]

T1 sequence (P28223 whole entry): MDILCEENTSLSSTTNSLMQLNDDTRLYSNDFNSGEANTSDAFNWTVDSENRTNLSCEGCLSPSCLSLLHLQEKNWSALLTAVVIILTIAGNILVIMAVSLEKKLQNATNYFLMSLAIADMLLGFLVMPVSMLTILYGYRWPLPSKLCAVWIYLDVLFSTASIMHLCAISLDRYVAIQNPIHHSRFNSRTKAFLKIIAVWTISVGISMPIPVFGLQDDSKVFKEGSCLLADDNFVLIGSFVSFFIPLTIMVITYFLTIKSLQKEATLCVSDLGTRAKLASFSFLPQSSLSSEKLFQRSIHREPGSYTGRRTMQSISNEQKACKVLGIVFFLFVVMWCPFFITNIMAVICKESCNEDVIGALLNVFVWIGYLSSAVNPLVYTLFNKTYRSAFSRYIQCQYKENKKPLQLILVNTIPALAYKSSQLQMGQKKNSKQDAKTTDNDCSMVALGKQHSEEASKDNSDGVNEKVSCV

Turning to GMDYKDDDDKGSRRHHCRSKAKRSHH [Flag-hPER1], in the assay with CHO cells [1], the “intracellular distribution / staining of internalized peptide” value (“intracellular distribution / staining” for short) is “diffusely distributed throughout the cytoplasm, but concentrated within subnuclear domains” and the “cells penetrated by peptide” value is reported as 100%.
In the case of GKHRHERGHHRDRRER [Cyclin L ania-6a], in the assay with CHO cells [1], the “membrane penetrating ability in words (relative to wild-type hPER1-MPP, TAT-PTD or negative control)” value is reported as “not all NLSs are PTDs”.
On to “β-galactosidase protein: full length β-galactosidase alone”, for which, in the assay with CHO cells [2], the “delivery of β-galactosidase into cells (enzymatic activity, blue color after X-gal)” value is recorded as “no blue staining reactivity”.
In the case of “GMDYKDDDDKGYGRKKKRRQRRR [Flag-TAT, reference compound]”, in the assay on CHO cells [1], the “intracellular distribution / staining” value is given as “diffusely distributed throughout the cytoplasm, but concentrated within subnuclear domains” and the “cells penetrated by peptide” value is given as 100%.
GRRERNKMAAAKCRNRRR [C-FOS]: the “membrane penetrating ability in words (relative to wild-type hPER1-MPP, TAT-PTD or negative control)” value with CHO cells [1] is “not all NLSs are PTDs”.
Regarding “SRRHHCRSKAKRSRHH [hPER1-MPP, N-terminally biotinylated peptide of hPER1 amino acids 830-845]”, in the assay on CHO cells [1], the “membrane penetrating ability in words (relative to wild-type hPER1-MPP, TAT-PTD or negative control)” value is on record as “efficiencies similar to the TAT-PTD peptide”; the time of internalization is on record as no more than 5 min; the “intracellular distribution / staining” value is listed as “diffusely distributed throughout the cytoplasm, but concentrated within subnuclear domains”; the “cells penetrated by peptide” value is recorded as 100%.
With “KTYRSAFSRYIQYKENKKPLQLI [TM7, C-terminal Transmembrane 7 domain peptide of the 5HT2A receptor]”, in the assay with 5HT2A receptor, the “5HT2A receptor signaling, calcium response” value is on record as “TM7 alone nor any of the other peptides were able to generate a calcium response”.
Turning to “R R H H C R S K A K R S R (RRHHCRSKAKRSR) [hPER1-PTD13]”, the “membrane penetrating ability in words (relative to wild-type hPER1-MPP, TAT-PTD or negative control)” value in the assay with CHO cells [1] is “little overall effect on the positive membrane penetrating potential”.
Turning to GKKKRKLSNRESAKRSR [beta Zip TF], in the assay with CHO cells [1], the “membrane penetrating ability in words (relative to wild-type hPER1-MPP, TAT-PTD or negative control)” value is on record as “not all NLSs are PTDs”.
`NCCc1c[nH]c2ccc(O)cc12` [serotonin]: the “5HT2A receptor signaling, calcium response” value on 5HT2A receptor is “receptor signaling is activated”.
Consider “S R R H H C A S K A K R S R H H (SRRHHCASKAKRSRHH) [R7A]”, for which the “membrane penetrating ability in words (relative to wild-type hPER1-MPP, TAT-PTD or negative control)” value in the assay with CHO cells [1] is on record as “reduced the detectable cytological signal to that observed for the negative control peptides”.
As to “GMDYKDDDDKGMDYKDDDDK [Flag, reference compound]”, the “intracellular distribution / staining” value with CHO cells [1] is “only barely discernible background staining”.
As to GDPKKKRKV [SV40, reference compound], the “membrane penetrating ability in words (relative to wild-type hPER1-MPP, TAT-PTD or negative control)” value with CHO cells [1] is on record as “not all NLSs are PTDs”.
GKKTGKNRKLKSKRVKPRD [hPER2]: the “membrane penetrating ability in words (relative to wild-type hPER1-MPP, TAT-PTD or negative control)” value in the assay on CHO cells [1] is listed as “not all NLSs are PTDs”.
